Assay results as given in BindingDB's records for patent US20250074895 (Blueprint Medicines, 2025).

Legend:
[1] = biological target: Cyclin-dependent kinase 2/G1/S-specific cyclin-E1 (Homo sapiens, UniProt P24941); assay: Biochemical CDK Inhibition Assay
Protocol: (§1) nhibitory effects of the compounds of the disclosure were measured in biochemical assays that measure the enzymatic phosphorylation activity of CDK enzyme in complex of Cyclin proteins phosphorylates 7.5 micromolar fluorescently labelled peptide substrate, 5-FAM-QSPKKG-CONH2, (FL-Peptide 18, Perkin Elmer, 760362) in the presence of adenosine-5′-triphosphate (ATP) and varying concentrations of the test compound in 100 mM 2-[4-(2-hydroxyethyl)piperazin-1-yl]ethanesulfonic acid (HEPES), pH 7.5, 10 mM MgCl2, 0.015% Brij-35, 1 mM dithiothreitol (DTT), 1.0% dimethylsulfoxide (DMSO). Assays were performed at 1.0 mM ATP or at ATP Km of the CDK enzymes in complex with Cyclin proteins. Reactions proceeded until between 10% to 20% total peptides were phosphorylated at room temperature (25° C.) and were terminated with 35 mM 2,2′,2″,2′″-(ethane-1,2-diyldinitrilo)tetraacetic acid (EDTA). Product was detected using the Caliper mobility shift detection method where the phosphorylated peptide (product) and substrate were electrophoretically separated and measured. Percent activity was plotted against log concentration of compound and points to generate an apparent IC50. The following CDK enzymes in complex with different cyclin proteins were used in these assays:CDK1/Cyclin B1, GST-tag (BPS, 40454), 1.5 nM used in the assayCDK2/Cyclin E (Eurofins, 14-475), 1.25 nM used in the assays

[2] = biological target: Cyclin-dependent kinase/G2/mitotic-specific cyclin- 1 (Homo sapiens, UniProt P06493); assay: Biochemical CDK Inhibition Assay
Protocol: as §1

Chain of Cyclin-dependent kinase/G2/mitotic-specific cyclin- 1 (P06493 whole entry): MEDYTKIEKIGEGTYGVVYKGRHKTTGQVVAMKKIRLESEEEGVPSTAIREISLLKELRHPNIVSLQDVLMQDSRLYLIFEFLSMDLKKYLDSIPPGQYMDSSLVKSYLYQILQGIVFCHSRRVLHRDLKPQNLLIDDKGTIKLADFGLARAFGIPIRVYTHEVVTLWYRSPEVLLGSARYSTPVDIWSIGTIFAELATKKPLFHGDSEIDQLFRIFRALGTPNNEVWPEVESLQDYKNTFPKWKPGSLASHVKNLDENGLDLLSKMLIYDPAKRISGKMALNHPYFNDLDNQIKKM
Chain of Cyclin-dependent kinase/G2/mitotic-specific cyclin- 1 (P14635 whole entry, further chain): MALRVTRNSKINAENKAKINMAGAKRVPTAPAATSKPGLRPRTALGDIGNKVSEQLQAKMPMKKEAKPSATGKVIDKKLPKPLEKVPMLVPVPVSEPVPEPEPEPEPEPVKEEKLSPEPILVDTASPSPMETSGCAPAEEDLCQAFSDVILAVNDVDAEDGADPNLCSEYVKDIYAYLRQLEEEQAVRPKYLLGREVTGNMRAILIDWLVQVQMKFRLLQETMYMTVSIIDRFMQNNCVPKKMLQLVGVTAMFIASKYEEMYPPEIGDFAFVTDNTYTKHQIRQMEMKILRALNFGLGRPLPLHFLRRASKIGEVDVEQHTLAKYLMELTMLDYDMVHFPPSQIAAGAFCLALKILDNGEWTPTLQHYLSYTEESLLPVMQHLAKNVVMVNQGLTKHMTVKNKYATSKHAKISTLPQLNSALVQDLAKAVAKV

IC50 [1] [nM] | IC50 [2] [nM] | SMILES
< 10 | 300 | COc1cnc(Nc2cc([C@H]3CC[C@@H](OC(=O)NC4(C)CC4)C3)[nH]n2)cn1 [US20250074895, Compound 28]
< 10 | < 100 | CNc1nncc(Nc2cc([C@H]3CC[C@@H](OC(=O)NC4(C)CC4)C3)[nH]n2)n1 [US20250074895, Compound 23]
< 10 | < 100 | CC1(NC(=O)O[C@@H]2CC[C@H](c3cc(Nc4ccnc(C(F)(F)F)n4)n[nH]3)C2)CC1 [US20250074895, Compound 10]
< 10 | < 100 | CN(C)c1nncc(Nc2cc([C@H]3CC[C@@H](OC(=O)NC4(C)CC4)C3)[nH]n2)n1 [US20250074895, Compound 44]
< 10 | > 500 | CC1(NC(=O)O[C@@H]2CC[C@H](c3cc(Nc4cnc(Cl)cn4)n[nH]3)C2)CC1 [US20250074895, Compound 41]
< 10 | < 100 | CC1(C)CCN1C(=O)O[C@@H]1CC[C@H](c2cc(Nc3cnc(CO)cn3)n[nH]2)C1 [US20250074895, Compound 49]
< 10 | 300 | CNc1nccc(Nc2cc([C@H]3CC[C@@H](OC(=O)NC4(C)CC4)C3)[nH]n2)n1 [US20250074895, Compound 48]
< 10 | 300 | CC1(NC(=O)O[C@@H]2CC[C@H](c3cc(Nc4ccncn4)n[nH]3)C2)CC1 [US20250074895, Compound 39]
15 | > 500 | Cc1cncnc1Nc1cc([C@H]2CC[C@@H](OC(=O)NC3(C)CC3)C2)[nH]n1 [US20250074895, Compound 40]
< 10 | > 500 | Cc1cc(C#N)cnc1Nc1cc([C@H]2CC[C@@H](OC(=O)NC3(C)CC3)C2)[nH]n1 [US20250074895, Compound 20]
< 10 | 300 | C[C@H](O)c1cnc(Nc2cc([C@H]3CC[C@@H](OC(=O)NC4(C)CC4)C3)[nH]n2)cn1 [US20250074895, Compound 21]
< 10 | 300 | CC1(NC(=O)O[C@@H]2CC[C@H](c3cc(Nc4cnc(C(F)(F)F)cn4)n[nH]3)C2)CC1 [US20250074895, Compound 30]
< 10 | < 100 | CC1(NC(=O)O[C@@H]2CC[C@H](c3cc(Nc4cc(C#N)ccn4)n[nH]3)C2)CC1 [US20250074895, Compound 2]
< 10 | < 100 | CC1(NC(=O)O[C@@H]2CC[C@H](c3cc(Nc4cncc(C5CC5)n4)n[nH]3)C2)CC1 [US20250074895, Compound 29]
< 10 | < 100 | COc1nncc(Nc2cc([C@H]3CC[C@@H](OC(=O)NC4(C)CC4)C3)[nH]n2)n1 [US20250074895, Compound 54]
< 10 | > 500 | Cc1nc(C#N)cnc1Nc1cc([C@H]2CC[C@@H](OC(=O)NC3(C)CC3)C2)[nH]n1 [US20250074895, Compound 4]
< 10 | 300 | CC1(NC(=O)O[C@@H]2CC[C@H](c3cc(Nc4ccc(C#N)cn4)n[nH]3)C2)CC1 [US20250074895, Compound 12]
< 10 | < 100 | COc1nccc(Nc2cc([C@@H]3CC[C@H](OC(=O)NC4(C)CC4)C3)[nH]n2)n1 [US20250074895, Compound 58]
< 10 | < 100 | CC1(NC(=O)O[C@@H]2CC[C@H](c3cc(Nc4cncc(C#N)n4)n[nH]3)C2)CC1 [US20250074895, Compound 11]
< 10 | < 100 | CC1(NC(=O)O[C@@H]2CC[C@H](c3cc(Nc4cnc(CO)cn4)n[nH]3)C2)CC1 [US20250074895, Compound 55]
< 10 | 300 | CC1(NC(=O)O[C@@H]2CC[C@H](c3cc(Nc4cnc(C#N)cn4)n[nH]3)C2)CC1 [US20250074895, Compound 1]
< 10 | 300 | CC1(NC(=O)O[C@@H]2CC[C@H](c3cc(Nc4cnccn4)n[nH]3)C2)CC1 [US20250074895, Compound 26]
25 | > 500 | CC1(NC(=O)O[C@@H]2CC[C@H](c3cc(Nc4nccnn4)n[nH]3)C2)CC1 [US20250074895, Compound 42]
< 10 | < 100 | C[C@H](O)c1cnc(Nc2cc([C@H]3CC[C@@H](OC(=O)N4CCC4(C)C)C3)[nH]n2)cn1 [US20250074895, Compound 52]
15 | > 500 | CC1(NC(=O)O[C@@H]2CC[C@H](c3cc(Nc4ccccn4)n[nH]3)C2)CC1 [US20250074895, Compound 13]
< 10 | 300 | CC1(NC(=O)O[C@@H]2CC[C@H](c3cc(Nc4ccnc(CO)n4)n[nH]3)C2)CC1 [US20250074895, Compound 46]

IC50 [1] [nM] | IC50 [2] [nM] | SMILES
< 10 | > 500 | Cc1c(C#N)ccnc1Nc1cc([C@H]2CC[C@@H](OC(=O)NC3(C)CC3)C2)[nH]n1 [US20250074895, Compound 14]
< 10 | > 500 | Cc1nc(CO)cnc1Nc1cc([C@H]2CC[C@@H](OC(=O)NC3(C)CC3)C2)[nH]n1 [US20250074895, Compound 47]
< 10 | 300 | Cc1cnc(Nc2cc([C@H]3CC[C@@H](OC(=O)NC4(C)CC4)C3)[nH]n2)cn1 [US20250074895, Compound 27]
< 10 | < 100 | CC1(NC(=O)O[C@H]2CC[C@@H](c3cc(Nc4cnccn4)n[nH]3)C2)CC1 [US20250074895, Compound 57]
< 10 | < 100 | CC1(NC(=O)O[C@@H]2CC[C@H](c3cc(Nc4ccnc(C#N)n4)n[nH]3)C2)CC1 [US20250074895, Compound 3]
< 10 | > 500 | CC1(NC(=O)O[C@@H]2CC[C@H](c3cc(Nc4cnc(S(C)(=O)=O)cn4)n[nH]3)C2)CC1 [US20250074895, Compound 35]
< 10 | 300 | CC1(NC(=O)O[C@@H]2CC[C@H](c3cc(Nc4cc(C#N)cnn4)n[nH]3)C2)CC1 [US20250074895, Compound 5]
< 10 | < 100 | CC1(NC(=O)O[C@@H]2CC[C@H](c3cc(Nc4cnc(C(F)F)cn4)n[nH]3)C2)CC1 [US20250074895, Compound 36]
< 10 | > 500 | COc1cnc(Nc2cc([C@H]3CC[C@@H](OC(=O)NC4(C)CC4)C3)[nH]n2)c(C)n1 [US20250074895, Compound 45]
< 10 | 300 | Cc1cnc(C#N)nc1Nc1cc([C@H]2CC[C@@H](OC(=O)NC3(C)CC3)C2)[nH]n1 [US20250074895, Compound 19]
15 | > 500 | CC1(NC(=O)O[C@@H]2CC[C@H](c3cc(Nc4ccc(C#N)nn4)n[nH]3)C2)CC1 [US20250074895, Compound 18]
< 10 | < 100 | Cc1nc(Nc2cc([C@H]3CC[C@@H](OC(=O)NC4(C)CC4)C3)[nH]n2)cnc1C#N [US20250074895, Compound 9]
< 10 | > 500 | Cc1nccnc1Nc1cc([C@H]2CC[C@@H](OC(=O)NC3(C)CC3)C2)[nH]n1 [US20250074895, Compound 6]
< 10 | < 100 | CC1(NC(=O)O[C@@H]2CC[C@H](c3cc(Nc4cnc(F)cn4)n[nH]3)C2)CC1 [US20250074895, Compound 31]
< 10 | 300 | CC1(NC(=O)O[C@@H]2CC[C@H](c3cc(Nc4cnc(OC(F)F)cn4)n[nH]3)C2)CC1 [US20250074895, Compound 8]
< 10 | > 500 | CN(C)c1cnc(Nc2cc([C@H]3CC[C@@H](OC(=O)NC4(C)CC4)C3)[nH]n2)cn1 [US20250074895, Compound 32]
15 | > 500 | CC1(NC(=O)O[C@@H]2CC[C@H](c3cc(Nc4cccnn4)n[nH]3)C2)CC1 [US20250074895, Compound 38]
< 10 | < 100 | C[C@@H](O)c1cnc(Nc2cc([C@H]3CC[C@@H](OC(=O)N4CCC4(C)C)C3)[nH]n2)cn1 [US20250074895, Compound 51]
< 10 | 300 | CNc1nc(Nc2cc([C@H]3CC[C@@H](OC(=O)NC4(C)CC4)C3)[nH]n2)cnc1C#N [US20250074895, Compound 43]
< 10 | 300 | Cc1nccc(Nc2cc([C@H]3CC[C@@H](OC(=O)NC4(C)CC4)C3)[nH]n2)n1 [US20250074895, Compound 34]
< 10 | < 100 | CC1(NC(=O)O[C@@H]2CC[C@H](c3cc(Nc4ccnc(C(F)F)n4)n[nH]3)C2)CC1 [US20250074895, Compound 33]
< 10 | 300 | CC1(NC(=O)O[C@@H]2CC[C@H](c3cc(Nc4cnc(C(C)(C)O)cn4)n[nH]3)C2)CC1 [US20250074895, Compound 17]
< 10 | < 100 | CC1(NC(=O)O[C@@H]2CC[C@H](c3cc(Nc4cc(C#N)ncn4)n[nH]3)C2)CC1 [US20250074895, Compound 16]
< 10 | < 100 | Cc1cncc(Nc2cc([C@H]3CC[C@@H](OC(=O)NC4(C)CC4)C3)[nH]n2)n1 [US20250074895, Compound 7]
< 10 | 300 | COc1nccc(Nc2cc([C@H]3CC[C@@H](OC(=O)NC4(C)CC4)C3)[nH]n2)n1 [US20250074895, Compound 25]
